The subject of this experiment is A549 NSCLC cells. Put plainly: Cellular cytotoxicity assay (Alamar Blue), A549. The format is cell-based. The settings on record: Homo sapiens, 72 h, upper end given as ≧100, read-out: IC50 (μM), cytotoxicity towards A549 NSCLC cells. As to the method:
The anti-proliferative activity of the histone deacetylase inhibitory compounds as described herein, is evaluated using the following cell lines: HeLa and HeLa-KB (cervical carcinoma), H460 (non small cell lung cancer), A549 (non-small cell lung cancer), MCF7 (breast carcinoma), MCF10A (normal, non tumorigenic breast epithelial), MDA-MB468 (breast carcinoma), MDA-MB435 (breast carcinoma), MDA-MB231 (breast carcinoma), SKBR-3 (breast carcinoma), SKOV-3 (ovarial carcinoma), A-2780 (ovarial carcinoma), RKO (colon carcinoma), HCT-15 (colon carcinoma), HCT-116 (colon carcinoma), PC3 (prostate carcinoma), BPH1 (benign prostate hyperplasia), AsPC1 (pancreatic carcinoma), Ca127 (tongue carcinoma), A-431 (vulva carcinoma), Hec1A (endometrial carcinoma), Saos-2 (osteosarcoma), U87MG (glioblastoma), WM266-4 (melanoma), K562 (chronic myeloid leukemia), EOL1 (acute hypereosinophilic myeloid leukemia), CCRF-CEM and CCRF-CEM VCR1000 (acute lymphoblastic leukemia sensitive and resistant towards Vincristine). For quantification of cellular proliferation/living cells the Alamar Blue (Resazurin) cell viability assay is applied (O'Brien et al. Eur J Biochem 267, 5421-5426, 2000). In this assay Resazurin is reduced to the fluorescent resorufine by cellular dehydrogenase activity, correlating with viable, proliferating cells. The examples are dissolved as 20 mM solutions in dimethylsulfoxide (DMSO) and subsequently diluted in semi-logarithmic steps. Cell lines are seeded at respective density into 96 well flat bottom plates in a volume of 200 μl per well. 24 h after seeding 1 μl each of the compound dilutions are added into each well of the 96 well plate. Each compound dilution is tested as quadruplicates. Wells containing untreated control cells are filled with 200 μl DMEM medium containing 0.5% v:v DMSO. The cells are then incubated with the compounds for 72 h at 37° C. in a humidified atmosphere containing 5% carbon dioxide. To determine the viability of the cells, 20 μl of a Resazurin solution (Sigma; 90 mg/l) are added. After 4 h incubation at 37° C. the fluorescence is measured at an extinction of λ=544 nm and an emission of λ=590 nm. For the calculation of the cell viability the emission value from untreated cells is set as 100% viability and the emission rates of treated cells are set in relation to the values of untreated cells. Viabilities are expressed as % values. The corresponding IC50 values of the compounds for cytotoxic activity are determined from the concentration-effect curves by means of non-linear regression.

These results are taken from patent publication US8440830B2, “Tetrahydro-fused pyridines as histone deacetylase inhibitors” (4SC AG, priority 2007, dated 2013).

For the compound `COC(=O)c1ccc(NC(=O)N2CCc3nc(C(=O)Nc4ccccc4N)sc3C2)cc1` [Example 5, Methyl 4-[({2-[(2-aminophenyl)carbamoyl]-6,7-dihydro[1,3]thiazolo[5,4-c]pyridin-5(4H)-yl}carbonyl)amino]benzoate], the IC50 is at least 0.2 µM.
In the case of `Nc1ccccc1NC(=O)c1nc2c(s1)CN(C(=O)Nc1ccc(Oc3ccccc3)cc1)CC2` [Example 6, N^2-(2-aminophenyl)-N5-(4-phenoxyphenyl)-6,7-dihydro[1,3]thiazolo[5,4-c]pyridine-2,5(4H)-dicarboxamide] it was at least 0.2 µM; in that of `Nc1ccccc1NC(=O)c1nc2c(s1)CN(C(=O)Nc1ccccc1OC(F)(F)F)CC2` [Example 8, N^2-(2-aminophenyl)-N5-[2-(trifluoromethoxy)phenyl]-6,7-dihydro[1,3]thiazolo[5,4-c]pyridine-2,5(4H)-dicarboxamide], at least 0.2 µM.
With `Nc1ccccc1NC(=O)c1nc2c(s1)CN(C(=O)Nc1ccc(OC(F)(F)F)cc1)CC2` [Example 9, N^2-(2-aminophenyl)-N5-[4-(trifluoromethoxy)phenyl]-6,7-dihydro[1,3]thiazolo[5,4-c]pyridine-2,5(4H)-dicarboxamide] the figure was at least 0.2 µM.
For the compound `Nc1ccccc1NC(=O)c1nc2c(s1)CN(C(=O)Nc1ccccc1OC(F)F)CC2` [Example 10, N^2-(2-aminophenyl)-N5-[2-(difluoromethoxy)phenyl]-6,7-dihydro[1,3]thiazolo[5,4-c]pyridine-2,5(4H)-dicarboxamide], the IC50 was at least 0.2 µM.
With `Nc1ccccc1NC(=O)c1nc2c(s1)CN(C(=O)Nc1ccc(OC(F)F)cc1)CC2` [Example 11, N^2-(2-aminophenyl)-N5-[4-(difluoromethoxy)phenyl]-6,7-dihydro[1,3]thiazolo[5,4-c]pyridine-2,5(4H)-dicarboxamide] the figure was at least 0.2 µM.
In the case of `CNC(=O)N1CCc2nc(C(=O)Nc3ccccc3N)sc2C1` [Example 17, N^2-(2-aminophenyl)-N^5-methyl-6,7-dihydro[1,3]thiazolo[5,4-c]pyridine-2,5(4H)-dicarboxamide], the IC50 is at least 0.2 µM.
For `COCCN(C)C(=O)N1CCc2nc(C(=O)Nc3ccccc3N)sc2C1` [Example 20, N^2-(2-aminophenyl)-N^5-(2-methoxyethyl)-N^5-methyl-6,7-dihydro[1,3]thiazolo[5,4-c]pyridine-2,5 (41:1)-dicarboxamide], the IC50 is at least 0.2 µM.
With `CCN(C(=O)N1CCc2nc(C(=O)Nc3ccccc3N)sc2C1)C(C)C` [Example 21, N^2-(2-aminophenyl)-N^5-ethyl-N^5-isopropyl-6,7-dihydro[1,3]thiazolo[5,4-c]-pyridine-2,5(4H)-dicarboxamide] the figure was at least 0.2 µM; with `CN(C)c1ccc(N(C)C(=O)N2CCc3nc(C(=O)Nc4ccccc4N)sc3C2)cc1` [Example 22, N^2-(2-aminophenyl)-N^5-[4-(dimethylamino)phenyl]-N^5-methyl-6,7-dihydro-[1,3]thiazolo[5,4-c]pyridine-2,5(4H)-dicarboxamide], at least 0.2 µM; with `CN(C)c1cccc(N(C)C(=O)N2CCc3nc(C(=O)Nc4ccccc4N)sc3C2)c1` [Example 23, N^2-(2-aminophenyl)-N^5-[3-(dimethylamino)phenyl]-N^5-methyl-6,7-dihydro-[1,3]-thiazolo[5,4-c]pyridine-2,5(4H)-dicarboxamide], at least 0.2 µM.
With `COc1ccc(N(C)C(=O)N2CCc3nc(C(=O)Nc4ccccc4N)sc3C2)cc1OC` [Example 24, N^2-(2-aminophenyl)-N^5-(3,4-dimethoxyphenyl)-N^5-methyl-6,7-dihydro[1,3]-thiazolo[5,4-c]pyridine-2,5(4H)-dicarboxamide] the figure was at least 0.2 µM; with `Nc1ccccc1NC(=O)c1nc2c(s1)CN(C(=O)Nc1ccc(N3CCOCC3)nc1)CC2` [Example 34, N^2-(2-aminophenyl)-N^5-(6-morpholin-4-ylpyridin-3-yl)-6,7-dihydro[1,3]thiazolo[5,4-c]pyridine-2,5(4H)-dicarboxamide], at least 0.2 µM; with `Nc1ccccc1NC(=O)c1nc2c(s1)CN(C(=O)Nc1ccc(N3CCC3)nc1)CC2` [Example 35, N^2-(2-aminophenyl)-N^5-(6-azetidin-1-ylpyridin-3-yl)-6,7-dihydro[1,3]thiazolo[5,4-c]pyridine-2,5(4H)-dicarboxamide], at least 0.2 µM.
With `COc1ccc(NC(=O)N2CCc3nc(C(=O)Nc4ccccc4N)sc3C2)cn1` [Example 38, N^2-(2-aminophenyl)-N^5-(6-methoxypyridin-3-yl)-6,7-dihydro[1,3]thiazolo[5,4-c]pyridine-2,5(4H)-dicarboxamide] the figure was at least 0.2 µM; with `CCCCNC(=O)N1CCc2nc(C(=O)Nc3ccccc3N)sc2C1` [Example 40, N^2-(2-aminophenyl)-N^5-butyl-6,7-dihydro[1,3]thiazolo[5,4-c]pyridine-2,5(4H)-dicarboxamide], at least 0.2 µM; with `Nc1ccccc1NC(=O)c1nc2c(s1)CN(C(=O)NC1CCC(c3cccnc3)CC1)CC2` (stereo not drawn) [Example 41, N^2-(2-aminophenyl)-N^5-(4-pyridin-3-ylcyclohexyl)-6,7-dihydro[1,3]thiazolo[5,4-c]pyridine-2,5(4H)-dicarboxamide], at least 0.2 µM.
For the compound `Nc1ccccc1NC(=O)c1nc2c(s1)CN(C(=O)NC1CCNCC1)CC2` [Example 42, N^2-(2-aminophenyl)-N^5-piperidin-4-yl-6,7-dihydro[1,3]thiazolo[5,4-c]pyridine-2,5(4H)-dicarboxamide], the concentration for half-maximal inhibition (IC50) is at least 0.2 µM.
For the compound `COc1ccc(NC(=O)N2CCc3nc(C(=O)Nc4cc(OC)ccc4N)sc3C2)cc1` [Example 43, N^2-(2-amino-5-methoxyphenyl)-N^5-(4-methoxyphenyl)-6,7-dihydro[1,3]thiazolo[5,4-c]pyridine-2,5(4H)-dicarboxamide], the IC50 is at least 0.2 µM.
As for `Nc1ccccc1NC(=O)c1nc2c(s1)CN(C(=O)NC1CCC(c3ccncc3)CC1)CC2` (stereo not drawn) [Example 44, N^2-(2-aminophenyl)-N^5-(4-pyridin-4-ylcyclohexyl)-6,7-dihydro[1,3]thiazolo[5,4-c]pyridine-2,5(4H)-dicarboxamide], the IC50 was at least 0.2 µM.
With `COc1ccc(NC(=O)N2CCc3nc(C(=O)Nc4cc(C(C)C)ccc4N)sc3C2)cc1` [Example 45, N^2-(2-amino-5-isopropylphenyl)-N^5-(4-methoxyphenyl)-6,7-dihydro[1,3]thiazolo[5,4-c]pyridine-2,5(4H)-dicarboxamide] the figure was at least 0.2 µM; with `COc1ccc(N)c(NC(=O)c2nc3c(s2)CN(C(=O)Nc2cccc4cnccc24)CC3)c1` [Example 46, N^2-(2-amino-5-methoxyphenyl)-N^5-isoquinolin-5-yl-6,7-dihydro[1,3]thiazolo[5,4-c]pyridine-2,5(4H)-dicarboxamide], at least 0.2 µM; with `COc1ccc(N)c(NC(=O)c2nc3c(s2)CN(C(=O)Nc2ccc(N(C)C)cc2)CC3)c1` [Example 47, N^2-(2-amino-5-methoxyphenyl)-N^5-[4-(dimethylamino)phenyl]-6,7-dihydro-[1,3]thiazolo[5,4-c]pyridine-2,5(4H)-dicarboxamide], at least 0.2 µM.
Consider `COc1ccc(NC(=O)N2CCc3nc(C(=O)Nc4cc(C(C)C)ccc4N)sc3C2)cc1OC` [Example 48, N^2-(2-amino-5-isopropylphenyl)-N^5-(3,4-dimethoxyphenyl)-6,7-dihydro[1,3]thiazolo[5,4-c]pyridine-2,5(4H)-dicarboxamide], for which the IC50 is at least 0.2 µM.
With `CC(C)c1ccc(N)c(NC(=O)c2nc3c(s2)CN(C(=O)Nc2cccc4cnccc24)CC3)c1` [Example 49, N^2-(2-amino-5-isopropylphenyl)-N^5-isoquinolin-5-yl-6,7-dihydro[1,3]thiazolo[5,4-c]pyridine-2,5(4H)-dicarboxamide] the figure was at least 0.2 µM; with `CC(C)c1ccc(N)c(NC(=O)c2nc3c(s2)CN(C(=O)Nc2ccc(N(C)C)cc2)CC3)c1` [Example 50, N^2-(2-amino-5-isopropylphenyl)-N^5-[4-(dimethylamino)phenyl]-6,7-dihydro[1,3]thiazolo[5,4-c]pyridine-2,5(4H)-dicarboxamide], at least 0.2 µM.
As for `COc1ccc(N)c(NC(=O)c2nc3c(s2)CN(C(=O)Nc2ccc(F)cc2)CC3)c1` [Example 51, N^2-(2-amino-5-methoxyphenyl)-N^5-(4-fluorophenyl)-6,7-dihydro[1,3]thiazolo[5,4-c]pyridine-2,5(4H)-dicarboxamide], the IC50 was at least 0.2 µM.
